The text below walks through data of ChEMBL document CHEMBL5241112, “Insights into the recent progress in the medicinal chemistry of pyranopyrimidine analogs” (RSC Med Chem, 2022).

The subject of one data set is Micrococcus luteus. The data set is described as follows: Antibacterial activity against Micrococcus luteus MTCC 2470 assessed as bacterial growth inhibition. It is filed as functional.
Data set [1] concerns Bacillus subtilis. Description: Antibacterial activity against Bacillus subtilis MTCC 121 assessed as bacterial growth inhibition. In kind it is functional.
In data set [2] the test system is Staphylococcus aureus. Description: Antibacterial activity against Staphylococcus aureus MLS-16 MTCC 2940 assessed as bacterial growth inhibition. In kind it is functional.
The test system of the next data set is Escherichia coli. Description: Antibacterial activity against Escherichia coli MTCC 739 assessed as bacterial growth inhibition. It is filed as functional.
A further data set deals with Raoultella planticola. Description: Antibacterial activity against Raoultella planticola MTCC 530 assessed as bacterial growth inhibition. In kind it is functional. Conditions: Klebsiella planticola.
In another data set the test system is Pseudomonas aeruginosa. The data set is described as follows: Antibacterial activity against Pseudomonas aeruginosa MTCC 2453 assessed as bacterial growth inhibition. It is filed as functional.
In data set [3] the test system is Staphylococcus aureus. Description: Antibacterial activity against Staphylococcus aureus MLS-16 MTCC 2940 assessed as minimum bactericidal concentration. It is filed as functional.
Data set [4] has as its system Staphylococcus aureus. Description: Antibacterial activity against Staphylococcus aureus MTCC 96 assessed as minimum bactericidal concentration. It is filed as functional.
In data set [5] the test system is Bacillus subtilis. Description: Antibacterial activity against Bacillus subtilis MTCC 121 assessed as minimum bactericidal concentration. It is filed as functional.
The subject of another data set is Streptococcus pneumoniae. Description: Antibacterial activity against Streptococcus pneumoniae ATCC BAA-255/R6 assessed as diameter of inhibition zone at 50 mg/ml incubated for 24 hrs by paper disk diffusion method. It is filed as functional. To be noted: read-out: DIZ.
Data set [6] deals with Staphylococcus aureus. Description: Antibacterial activity against Staphylococcus aureus ATCC6538-P assessed as diameter of inhibition zone at 50 mg/ml incubated for 24 hrs by paper disk diffusion method. Conditions: read-out: DIZ. In kind it is functional.
A further data set concerns Klebsiella pneumoniae. Description: Antibacterial activity against Klebsiella pneumoniae MGH 78578 assessed as diameter of inhibition zone at 50 mg/ml incubated for 24 hrs by paper disk diffusion method. It is filed as functional. To be noted: read-out: DIZ.
Data set [7] concerns Aspergillus fumigatus. The data set is described as follows: microbe, parasite or virus in culture. Conditions: ATCC204305, dose 50 mg/ml, time 24 hrs, read-out: DIZ. In kind it is functional.
The test system of a further data set is HT-29. The data set is described as follows: Antiproliferative activity against human HT-29 cells assessed as reduction in cell viability by MTT assay. In kind it is functional, cell-based.
A further data set deals with PANC-1. Description: Antiproliferative activity against human PANC-1 cells assessed as reduction in cell viability by MTT assay. In kind it is functional, cell-based.
The test system of the next data set is MDA-MB-231. Description: cells. Conditions: Homo sapiens.
The subject of data set [8] is Human immunodeficiency virus 1. Description: Antiviral activity against HIV1 IIIB infected in human MT4 cells assessed as reduction in virus-induced cytopathic effect by MTT assay. It is filed as functional, organism-based. To be noted: Human immunodeficiency virus 1, IIIB.
Data set [9] deals with Human immunodeficiency virus 2. Description: Antiviral activity against HIV2 ROD infected in human MT4 cells assessed as reduction in virus-induced cytopathic effect by MTT assay. It is filed as functional, organism-based. To be noted: Human immunodeficiency virus 2, ROD.
The nature of data set [10]: Cytotoxicity against human MT4 cells assessed as reduction in cell viability by MTT assay. In kind it is toxicity, cell-based.
Data set [11] can be described thus: Selectivity index, ratio of CC50 for cytotoxicity against human MT4 cells to EC50 for antiviral activity against HIV1 IIIB infected in human MT4 cells. To be noted: read-out: Selectivity Index. It is filed as toxicity, cell-based.
Data set [12] is described as follows: Selectivity index, ratio of CC50 for cytotoxicity against human MT4 cells to EC50 for antiviral activity against HIV2 ROD infected in human MT4 cells. It is filed as toxicity, cell-based. To be noted: read-out: Selectivity Index.
Data set [13] can be described thus: Cytotoxicity against human HDF cells assessed as reduction in cell viability by MTT assay. To be noted: HDF cells (NHDF cell line). It is filed as toxicity, cell-based.
The target of another data set is Alpha-glucosidase (Saccharomyces cerevisiae S288c, UniProt P53341+P38158+P07265). Description: Inhibition of Saccharomyces cerevisiae alpha-glucosidase assessed as decrease in release of p-nitrophenol using pNPG as substrate incubated for 10 mins by spectroscopic analysis. In kind it is protein assay.
Data set [14] has as its target Alpha-glucosidase (Mus musculus). The data set is described as follows: Inhibition of mouse alpha-glucosidase assessed as decrease in release of p-nitrophenol using pNPG as substrate preincubated for 10 mins followed by substrate addition and measured after 30 mins by spectroscopic analysis.
Another data set deals with Clostridium tetani. The data set is described as follows: Antibacterial activity against Clostridium tetani MTCC 449 assessed as bacterial growth inhibition by broth microdilution method. It is filed as functional.
Another data set concerns Vibrio cholerae. Description: Antibacterial activity against Vibrio cholerae MTCC 3906 assessed as bacterial growth inhibition by broth microdilution method. It is filed as functional.
Data set [15] has as its system Aspergillus fumigatus. Description: Antifungal activity against Aspergillus fumigatus MTCC 227 assessed as fungal growth inhibition by broth microdilution method. It is filed as functional.
The subject of data set [16] is Mycobacterium tuberculosis. The data set is described as follows: Antitubercular activity against Mycobacterium tuberculosis H37Rv assessed as bacterial growth inhibition at 250 ug/ml. It is filed as functional.
The test system of data set [17] is Mycobacterium tuberculosis. Description: Antitubercular activity against Mycobacterium tuberculosis H37Rv assessed as bacterial growth inhibition at 100 ug/ml. In kind it is functional.
A further data set concerns Plasmodium falciparum. Description: microbe, parasite or virus in culture.
For data set [18], the system named is Bacillus subtilis. The data set is described as follows: Antibacterial activity against Bacillus subtilis ATCC 6633 assessed as diameter of inhibition zone incubated for 24 hrs by disc diffusion assay. It is filed as functional.
The subject of data set [19] is Bacillus subtilis. The data set is described as follows: Antibacterial activity against Bacillus subtilis ATCC 6633 assessed as inhibition of bacterial growth incubated for 24 hrs by broth macrodilution method. In kind it is functional.
Data set [20] concerns Serratia marcescens. The data set is described as follows: Antibacterial activity against Serratia marcescens assessed as diameter of inhibition zone by disc diffusion method. In kind it is functional.
The test system of data set [21] is Staphylococcus aureus. The data set is described as follows: Antibacterial activity against Staphylococcus aureus assessed as inhibition of bacterial growth. It is filed as functional.
For the next data set, the system named is Salmonella typhimurium. The data set is described as follows: Antibacterial activity against Salmonella typhimurium MTCC 98 assessed as bacterial growth inhibition by broth microdilution method. In kind it is functional, Salmonella enterica subsp. enterica serovar Typhimurium. To be noted: Salmonella enterica.
In data set [22] the test system is Staphylococcus aureus. The data set is described as follows: Antibacterial activity against Staphylococcus aureus NCTC-7447 assessed as diameter of inhibition zone incubated for 24 hrs by disc diffusion method. In kind it is functional.
In another data set the test system is Bacillus cereus. Description: Antibacterial activity against Bacillus cereus ATCC-14579 assessed as diameter of inhibition zone incubated for 24 hrs by disc diffusion method. It is filed as functional.
The subject of data set [23] is Serratia marcescens. Description: Antibacterial activity against Serratia marcescens IMRU-70 assessed as diameter of inhibition zone incubated for 24 hrs by disc diffusion method. In kind it is functional.
The subject of a further data set is Proteus mirabilis. The data set is described as follows: Antibacterial activity against Proteus mirabilis NTCC-289 assessed as diameter of inhibition zone incubated for 24 hrs by disc diffusion method. It is filed as functional.

In brackets after ≈: the same amount, converted by molar mass.

On to `Cc1ccc(C2c3c(Nc4ccc([N+](=O)[O-])cc4)ncnc3Oc3c2c(=O)oc2ccccc32)cc1` (centres undefined), for which the MIC in the data set on Micrococcus luteus, in the data set on Bacillus subtilis [1], in the data set on Staphylococcus aureus [2], in the data set on Escherichia coli, in the data set on Raoultella planticola and with Pseudomonas aeruginosa was 15.6 µg/mL (≈ 32.6 µM) throughout. For the same compound, the MBC in the data set on Staphylococcus aureus [3], in the data set on Staphylococcus aureus [4] and in the data set on Bacillus subtilis [5] was 15.6 µg/mL (≈ 32.6 µM) each time.

For `Cc1nc2c(c(=O)[nH]1)C(c1ccc(Cl)cc1)C=C(c1cc3ccccc3oc1=O)O2` (centres undefined), the zone of inhibition at 50000 µg/mL in the data set with Streptococcus pneumoniae stood at 14 mm; with Staphylococcus aureus [6], 10 mm; with Klebsiella pneumoniae, 20 mm; in the data set on Aspergillus fumigatus [7] it was 10 mm.

On to `COc1cc([C@@H]2c3cc4c(cc3[C@@H](O[C@@H]3O[C@@H]5CO[C@@H](C)O[C@H]5[C@H](O)[C@H]3O)[C@H]3COC(=O)[C@H]23)OCO4)cc(OC)c1O` [ETOPOSIDE], for which the IC50 with HT-29 is 25.6 µM; with PANC-1, 24.4 µM; with MDA-MB-231, 30.6 µM.

Take `N=c1c2c(ncn1N)Oc1c(c(=O)oc3ccccc13)C2c1cccc2ccccc12` (centres undefined): the 50% effective concentration (EC50) in [8] and in data set [9] was 4.84 µg/mL (≈ 11.9 µM) each time. Moreover, in [10], the CC50 came to 4.84 µg/mL (≈ 11.9 µM). Further, the selectivity ratio in [11] and in [12] was less than 1 in each case.

On to `N#CC1=C(N)Oc2[nH]c(=O)[nH]c(=O)c2C12c1cc(Br)ccc1-n1c2nc2ccccc2c1=O` (centres undefined), for which the concentration for half-maximal inhibition (IC50) was 14.2 µM with PANC-1 (read-out: IC50), greater than 100 µM in [13] and 10.9 µM in the data set with MDA-MB-231.

As to `COc1cc(/C=C/C(=O)C2=C(/C=C/c3ccc(O)c(OC)c3)Oc3[nH]c(=O)[nH]c(=O)c3C2c2ccc([N+](=O)[O-])cc2)ccc1O` (centres undefined), the 50% inhibitory concentration (IC50) on Alpha-glucosidase is 12.41 µM; in data set [14], 106.8 µM.

On to `Cc1nn(-c2ccccc2)c(-n2ccnc2)c1C1C(C#N)=C(N)Oc2[nH]c(=O)[nH]c(=O)c21` (centres undefined), for which the MIC came out at 100 µg/mL (≈ 233 µM) in the data set with Clostridium tetani, 662 µg/mL (≈ 1550 µM) in the data set with Vibrio cholerae and 200 µg/mL (≈ 467 µM) with Aspergillus fumigatus [15]. For the same compound, in [16], the inhibition at 250 µg/mL was determined as 95%. The inhibition at 100 µg/mL in data set [17] worked out at 92%. Besides, in the data set with Plasmodium falciparum, half-maximal inhibition (IC50) was put at 0.97 µg/mL (≈ 2.26 µM).

Turning to `CC1(C)S[C@@H]2[C@H](NC(=O)[C@H](N)c3ccccc3)C(=O)N2[C@H]1C(=O)O` [AMPICILLIN], the “diameter of the inhibition zone (DIZ)” value with Bacillus subtilis [18] is recorded as 32.4 mm; in the data set on Serratia marcescens [20], 25 mm; in the data set on Staphylococcus aureus [22], 25 mm; in the data set with Bacillus cereus, 25 mm; in the data set with Serratia marcescens [23], 25 mm; with Proteus mirabilis it was 25 mm. The MIC with Bacillus subtilis [19] came out at 0.45 µg/mL (≈ 1.29 µM); with Staphylococcus aureus [21] it was 250 µg/mL (≈ 715 µM); in the data set with Salmonella typhimurium, 100 µg/mL (≈ 286 µM); with Vibrio cholerae, 100 µg/mL (≈ 286 µM).

In the case of `N#CC1=C(N)Oc2[nH]c(=O)[nH]c(=O)c2C12c1ccccc1-n1c2nc2ccccc2c1=O` (centres undefined), the IC50 in the data set with HT-29 is 23.7 µM; in data set [13] it was greater than 100 µM.
